Data from patent publication US20230201207A1, “COMBINATION CANCER THERAPY USING N2-QUINOLINE OR ISOQUINOLINE SUBSTITUTED PURINE DERIVATIVES” (SHANGHAI HUAYU BIOTECHNOLOGY CO., LTD., priority 2020, published 2023).

Assays:
PDGFR = assay: Inhibition of PDGFR phosphorylation; assay type: biochemical
From the text: (§1) FLT3 is a class III receptor tyrosine kinase and plays an important role in hematopoiesis and lymphocyte development. […] Wang et al found over 60% of 82 leukemia cell lines were FLT3 positive (Wang Y et al., (2006) Journal of Experimental Hematology 14(3): 446-449). […] Thus, the compounds of the disclosure with high inhibitory effect on FLT3 function may be good candidates for leukemia treatment.

AKT = assay: Inhibition of AKT phosphorylation; assay type: biochemical
From the text: as §1

CT-26 WT cells = assay: Anti-tumor effect in CT-26 WT tumor-bearing BALB/c mice; assay type: in vivo; settings: for Average tumor size: Anti-m-PD-1 10 mg/kg I.P., Compound A 40 mg/kg P.O.
Description: (§2) CT-26 WT cells were maintained at 37° C. in 5% CO2 in RPMI 1640 medium (10-040-CV, Corning cellgro) supplemented with 10% FBS (10270-106, GIBCO) and used before the 10th subculture. At Day 0, 45 BALB/c female mice, 5-6 weeks old, were each subcutaneously injected with about 200.0 μL. of the CT-26 WT cell medium containing about 5×10^5 cells.
(§3) At Day 9, 32 tumor-bearing mice were randomly allocated to four groups according to their tumor volumes, 8 mice per group. The rest were subject to euthanasia.
(§4) The four groups of animals were administered with an anti-m-PD-1 antibody (BE0146, BioXcell) in PBS (21-040-CVR, BioXcell) at 1.0 mg/mL, Compound A in saline at 4.0 mg/mL, the anti-m-PD-1 antibody in combination with Compound A, and the control vehicle (saline), respectively, at doses shown in Table 1 below.
(§5) Mice were observed every day for their physical conditions and activities, and mice body weight and tumor volume were measured every Tuesday, Thursday and Sunday. The tumor volume (V) was calculated as (length×width^2)/2.
(§6) At Day 23, mice were subject to euthanasia, from which tumors were collected, weighed and photographed. Mice body weights, tumor sizes and tumor weights were analyzed using the t-test in SPSS, and group differences were deemed statistically significant when the p-value was 0.05 or less.
Tumor growth inhibition (TGI) was calculated based on tumor weight or tumor volume. Further, Zheng-Jun Jin's Q value was calculated using the formula Q=EA+B/(EA+EB−EA×EB) to assess the combined effect of the anti-PD-1 antibody and Compound A, wherein EA+B, EA, and EB referred to the TGIs of the combination therapy, anti-PD-1 administration and Compound A administration, respectively. A Q value higher than 1.15 indicated a synergistic or additive effect.

[1] = Body weight and survival of CT-26 WT tumor-bearing BALB/c mice; assay type: in vivo; settings: for Average body weight: Anti-m-PD-1 10 mg/kg I.P., Compound A 40 mg/kg P.O.
Description: as §2, §3, §4, §5, §6

PI3K α isoform = PI3K α isoform (Homo sapiens, UniProt P42336)
PI3K β isoform = PI3K β isoform (Homo sapiens, UniProt P42338)
PI3K γ isoform = PI3K γ isoform (Homo sapiens, UniProt P48736); assay: PI3K isoform inhibition, γ isoform (method of CN104513254A)
[2] = human, in vivo; cited from earlier work

PI3K α isoform, sequence (P42336 whole entry, canonical isoform): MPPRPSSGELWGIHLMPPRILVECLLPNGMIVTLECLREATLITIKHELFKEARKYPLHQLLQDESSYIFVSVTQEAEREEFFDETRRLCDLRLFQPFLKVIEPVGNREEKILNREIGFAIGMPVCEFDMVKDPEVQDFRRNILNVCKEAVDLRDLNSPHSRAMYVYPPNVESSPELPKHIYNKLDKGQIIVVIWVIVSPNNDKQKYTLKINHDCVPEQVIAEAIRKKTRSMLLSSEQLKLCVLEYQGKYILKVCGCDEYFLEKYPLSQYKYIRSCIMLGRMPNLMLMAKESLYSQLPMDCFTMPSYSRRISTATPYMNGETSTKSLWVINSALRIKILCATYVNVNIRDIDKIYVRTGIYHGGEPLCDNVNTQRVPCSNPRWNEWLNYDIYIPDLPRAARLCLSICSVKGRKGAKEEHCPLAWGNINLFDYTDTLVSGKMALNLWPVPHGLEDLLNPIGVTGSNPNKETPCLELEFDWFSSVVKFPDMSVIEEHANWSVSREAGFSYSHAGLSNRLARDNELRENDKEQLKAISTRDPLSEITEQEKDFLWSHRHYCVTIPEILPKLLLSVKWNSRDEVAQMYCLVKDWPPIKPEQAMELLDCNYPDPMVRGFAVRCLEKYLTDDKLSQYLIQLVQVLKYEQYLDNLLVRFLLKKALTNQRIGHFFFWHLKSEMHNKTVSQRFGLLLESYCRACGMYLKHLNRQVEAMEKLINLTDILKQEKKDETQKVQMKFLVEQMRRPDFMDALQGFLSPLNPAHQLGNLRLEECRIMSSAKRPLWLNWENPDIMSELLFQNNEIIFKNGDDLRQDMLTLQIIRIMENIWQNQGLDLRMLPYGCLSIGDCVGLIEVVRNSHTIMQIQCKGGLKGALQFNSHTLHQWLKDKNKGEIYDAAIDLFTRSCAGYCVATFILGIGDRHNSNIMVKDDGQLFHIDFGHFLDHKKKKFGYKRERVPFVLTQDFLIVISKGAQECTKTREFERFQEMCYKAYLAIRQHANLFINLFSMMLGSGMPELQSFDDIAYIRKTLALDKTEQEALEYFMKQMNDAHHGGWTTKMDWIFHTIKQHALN
PI3K α isoform, sequence (P27986 whole entry partner, canonical isoform): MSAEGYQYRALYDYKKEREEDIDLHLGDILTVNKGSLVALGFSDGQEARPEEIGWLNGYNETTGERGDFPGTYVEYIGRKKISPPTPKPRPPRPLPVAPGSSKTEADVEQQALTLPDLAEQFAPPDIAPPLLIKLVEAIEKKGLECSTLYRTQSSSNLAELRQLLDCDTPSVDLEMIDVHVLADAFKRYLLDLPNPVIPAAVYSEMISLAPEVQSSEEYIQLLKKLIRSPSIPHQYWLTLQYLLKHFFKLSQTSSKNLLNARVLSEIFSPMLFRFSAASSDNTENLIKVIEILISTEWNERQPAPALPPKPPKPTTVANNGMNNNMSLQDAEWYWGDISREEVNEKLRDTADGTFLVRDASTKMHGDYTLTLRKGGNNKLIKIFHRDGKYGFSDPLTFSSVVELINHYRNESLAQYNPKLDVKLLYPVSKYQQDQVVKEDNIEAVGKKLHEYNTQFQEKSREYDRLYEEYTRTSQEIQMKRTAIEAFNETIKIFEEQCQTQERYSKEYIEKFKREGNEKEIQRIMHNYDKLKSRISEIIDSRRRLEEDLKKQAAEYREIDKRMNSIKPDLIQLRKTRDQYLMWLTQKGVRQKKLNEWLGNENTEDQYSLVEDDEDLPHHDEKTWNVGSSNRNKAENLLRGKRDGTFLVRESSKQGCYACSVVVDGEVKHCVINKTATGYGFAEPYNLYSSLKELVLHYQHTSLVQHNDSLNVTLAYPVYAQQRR
PI3K β isoform, sequence (P42338 whole entry, canonical isoform): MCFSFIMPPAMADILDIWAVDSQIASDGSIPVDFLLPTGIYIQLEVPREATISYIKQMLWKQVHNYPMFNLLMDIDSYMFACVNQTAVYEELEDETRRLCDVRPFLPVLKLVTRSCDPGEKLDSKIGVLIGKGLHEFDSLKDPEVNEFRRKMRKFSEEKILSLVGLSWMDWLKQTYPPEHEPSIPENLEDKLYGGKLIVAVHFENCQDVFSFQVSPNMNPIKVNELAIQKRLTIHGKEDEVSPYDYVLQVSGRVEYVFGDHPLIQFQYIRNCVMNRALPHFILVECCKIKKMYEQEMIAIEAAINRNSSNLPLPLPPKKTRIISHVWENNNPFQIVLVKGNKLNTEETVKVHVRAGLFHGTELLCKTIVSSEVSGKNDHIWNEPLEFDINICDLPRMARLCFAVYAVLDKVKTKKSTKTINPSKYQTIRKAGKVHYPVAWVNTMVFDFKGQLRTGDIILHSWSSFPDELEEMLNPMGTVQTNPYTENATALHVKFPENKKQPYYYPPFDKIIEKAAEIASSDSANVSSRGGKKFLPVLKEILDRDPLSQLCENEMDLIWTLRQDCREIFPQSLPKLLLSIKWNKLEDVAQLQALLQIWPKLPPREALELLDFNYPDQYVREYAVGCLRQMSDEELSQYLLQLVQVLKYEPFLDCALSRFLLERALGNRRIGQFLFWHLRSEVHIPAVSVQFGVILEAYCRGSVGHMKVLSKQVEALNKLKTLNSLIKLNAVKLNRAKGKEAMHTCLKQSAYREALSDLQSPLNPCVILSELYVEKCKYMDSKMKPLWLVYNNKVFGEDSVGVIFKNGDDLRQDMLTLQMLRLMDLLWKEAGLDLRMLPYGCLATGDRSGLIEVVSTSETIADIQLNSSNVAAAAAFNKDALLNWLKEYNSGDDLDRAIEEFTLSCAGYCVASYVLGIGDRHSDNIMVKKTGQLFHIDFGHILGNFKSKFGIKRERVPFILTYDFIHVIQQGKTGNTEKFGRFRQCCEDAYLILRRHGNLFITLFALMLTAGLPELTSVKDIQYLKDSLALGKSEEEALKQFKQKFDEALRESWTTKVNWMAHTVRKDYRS
PI3K β isoform, sequence (P27986 whole entry partner, canonical isoform): as the sequence (P27986 whole entry partner, canonical isoform) above
PI3K γ isoform, sequence (P48736 whole entry, canonical isoform): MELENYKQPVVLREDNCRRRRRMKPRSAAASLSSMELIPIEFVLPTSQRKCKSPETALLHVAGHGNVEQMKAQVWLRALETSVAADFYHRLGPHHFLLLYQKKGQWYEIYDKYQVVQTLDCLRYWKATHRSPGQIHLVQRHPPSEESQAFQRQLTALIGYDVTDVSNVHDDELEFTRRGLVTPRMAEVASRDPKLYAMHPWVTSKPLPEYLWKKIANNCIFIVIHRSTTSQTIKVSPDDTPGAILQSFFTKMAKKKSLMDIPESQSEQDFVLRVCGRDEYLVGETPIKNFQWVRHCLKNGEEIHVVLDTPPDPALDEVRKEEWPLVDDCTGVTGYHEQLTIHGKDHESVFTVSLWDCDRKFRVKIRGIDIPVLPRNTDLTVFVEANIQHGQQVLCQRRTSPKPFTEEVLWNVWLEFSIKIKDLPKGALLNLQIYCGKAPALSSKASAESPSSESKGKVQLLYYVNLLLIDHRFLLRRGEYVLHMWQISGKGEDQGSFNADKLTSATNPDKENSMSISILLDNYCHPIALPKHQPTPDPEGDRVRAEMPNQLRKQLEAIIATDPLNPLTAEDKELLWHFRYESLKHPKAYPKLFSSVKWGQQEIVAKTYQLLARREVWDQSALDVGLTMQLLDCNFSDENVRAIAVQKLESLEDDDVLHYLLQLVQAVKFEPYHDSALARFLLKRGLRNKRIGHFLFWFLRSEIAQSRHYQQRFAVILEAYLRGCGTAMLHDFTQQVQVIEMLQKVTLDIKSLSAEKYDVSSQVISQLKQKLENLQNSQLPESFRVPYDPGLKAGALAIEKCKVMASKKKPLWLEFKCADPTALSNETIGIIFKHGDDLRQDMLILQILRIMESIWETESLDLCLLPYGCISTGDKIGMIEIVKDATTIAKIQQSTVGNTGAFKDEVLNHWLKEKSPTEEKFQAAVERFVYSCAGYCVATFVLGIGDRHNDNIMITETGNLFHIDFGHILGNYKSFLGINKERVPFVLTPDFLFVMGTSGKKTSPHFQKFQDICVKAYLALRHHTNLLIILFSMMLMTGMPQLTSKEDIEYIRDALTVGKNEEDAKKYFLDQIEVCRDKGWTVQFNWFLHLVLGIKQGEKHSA

## c1cnc2ccc(Nc3nc(NC4CC4)c4nc[nH]c4n3)cc2c1 [Compound A]
PDGFR
  EC50: ~1 µM
AKT
  EC50: ~0.1 µM
CT-26 WT cells; Day 9 (allocation)
  Average tumor size: 176.94 mm^3
CT-26 WT cells; Day 10
  Average tumor size: 272.49 mm^3
CT-26 WT cells; Day 12
  Average tumor size: 492.26 mm^3
CT-26 WT cells; Day 14
  Average tumor size: 672.51 mm^3
CT-26 WT cells; Day 16
  Average tumor size: 876.22 mm^3
CT-26 WT cells; Day 18
  Average tumor size: 1099.45 mm^3
CT-26 WT cells; Day 20
  Average tumor size: 1348.89 mm^3
CT-26 WT cells; Day 22
  Average tumor size: 1698.25 mm^3
CT-26 WT cells; Day 23
  Tumor volume based TGI: 19.35%
  Tumor weight based TGI: 31.71%
  Average tumor size: 1870.89 mm^3
CT-26 WT cells; group average at Day 23, 8 mice
  Tumor weight, Average: 1.93 g
CT-26 WT cells; individual tumor isolated at Day 23, Mouse no. 1
  Tumor weight, Mouse no. 1: 1.14 g
CT-26 WT cells; individual tumor isolated at Day 23, Mouse no. 2
  Tumor weight, Mouse no. 2: 2.11 g
CT-26 WT cells; individual tumor isolated at Day 23, Mouse no. 3
  Tumor weight, Mouse no. 3: 2.11 g
CT-26 WT cells; individual tumor isolated at Day 23, Mouse no. 4
  Tumor weight, Mouse no. 4: 0.89 g
CT-26 WT cells; individual tumor isolated at Day 23, Mouse no. 5
  Tumor weight, Mouse no. 5: 1.68 g
CT-26 WT cells; individual tumor isolated at Day 23, Mouse no. 6
  Tumor weight, Mouse no. 6: 2.16 g
CT-26 WT cells; individual tumor isolated at Day 23, Mouse no. 7
  Tumor weight, Mouse no. 7: 2.73 g
CT-26 WT cells; individual tumor isolated at Day 23, Mouse no. 8
  Tumor weight, Mouse no. 8: 2.64 g
[1]; Day 9 (allocation)
  Average body weight: 15.59 g
[1]; Day 10
  Average body weight: 15.16 g
[1]; Day 12
  Average body weight: 15.86 g
[1]; Day 14
  Average body weight: 15.91 g
[1]; Day 16
  Average body weight: 16.46 g
[1]; Day 18
  Average body weight: 16.75 g
[1]; Day 20
  Average body weight: 17.01 g
[1]; Day 22
  Average body weight: 17.72 g
[1]; Day 23
  Mice weight with the tumor weight deducted: 16.22 g
  Average body weight: 18.15 g
PI3K α isoform
  EC50, PI3K α isoform inhibition: μM level
PI3K β isoform
  EC50, PI3K β isoform inhibition: μM level
PI3K γ isoform
  EC50, PI3K γ isoform inhibition: μM level

## Ipilimumab
[2]
  Patients who experienced immune-related adverse effects: 64%
